Reference: ChEMBL document CHEMBL4316596, “Antimicrobial Peptides with High Proteolytic Resistance for Combating Gram-Negative Bacteria” (J Med Chem, 2019)

Legend:
Pseudomonas aeruginosa [1] = test: Antimicrobial activity against Pseudomonas aeruginosa CICC 21625 clinical isolates after 24 hrs by NCCLS-protocol based assay; type: functional; conditions: CICC 21625, 24 h
Acinetobacter baumannii [2] = test: Antimicrobial activity against Acinetobacter baumannii after 24 hrs by NCCLS-protocol based assay; type: functional
Pseudomonas aeruginosa [3] = test: Antimicrobial activity against Pseudomonas aeruginosa 25349 clinical isolates after 24 hrs by NCCLS-protocol based assay; type: functional; conditions: Pseudomonas aeruginosa, 25349, 24 h
Pseudomonas aeruginosa [4] = test: Bactericidal activity against Pseudomonas aeruginosa CICC 21625 clinical isolates incubated for 4 hrs followed by culture spread on agar plates and cultured overnight; type: functional; conditions: CICC 21625, 4 h, read-out: MBC>99.9
Pseudomonas aeruginosa [5] = test: Bactericidal activity against Pseudomonas aeruginosa 26305 clinical isolates incubated for 4 hrs followed by culture spread on agar plates and cultured overnight; type: functional; conditions: Pseudomonas aeruginosa, 26305, 4 h; read-out: MBC>99.9
Salmonella typhimurium [6] = test: Bactericidal activity against Salmonella typhimurium C7731 incubated for 4 hrs followed by culture spread on agar plates and cultured overnight; type: functional, Salmonella enterica subsp. enterica serovar Typhimurium; conditions: Salmonella enterica, C7731, 4 h; read-out: MBC>99.9
Escherichia coli [7] = test: Antimicrobial activity against Escherichia coli 078 after 24 hrs by NCCLS-protocol based assay; type: functional; conditions: Escherichia coli, 078, 24 h
Escherichia coli [8] = test: Bactericidal activity against Escherichia coli 078 incubated for 4 hrs followed by culture spread on agar plates and cultured overnight; type: functional; conditions: Escherichia coli, 078, 4 h; read-out: MBC>99.9
Escherichia coli [9] = test: Antimicrobial activity against Escherichia coli ATCC 25922 after 24 hrs by NCCLS-protocol based assay; type: functional; conditions: ATCC 25922, 24 h
Salmonella typhimurium [10] = test: Antimicrobial activity against Salmonella typhimurium ATCC 14028 after 24 hrs by NCCLS-protocol based assay; type: functional, Salmonella enterica subsp. enterica serovar Typhimurium; conditions: Salmonella enterica, ATCC 14028, 24 h
Escherichia coli [11] = test: Bactericidal activity against Escherichia coli K88 incubated for 4 hrs followed by culture spread on agar plates and cultured overnight; type: functional; conditions: K88, 4 h, read-out: MBC>99.9
Escherichia coli [12] = test: Bactericidal activity against Escherichia coli ATCC 25922 incubated for 4 hrs followed by culture spread on agar plates and cultured overnight; type: functional; conditions: ATCC 25922, 4 h, read-out: MBC>99.9
Escherichia coli [13] = test: Bactericidal activity against Escherichia coli UB1005 incubated for 4 hrs followed by culture spread on agar plates and cultured overnight; type: functional; conditions: UB1005, 4 h, read-out: MBC>99.9
[14] = Bactericidal activity against Salmonella pullorum C7913 incubated for 4 hrs followed by culture spread on agar plates and cultured overnight; type: functional, Salmonella enterica subsp. enterica serovar Pullorum; conditions: Salmonella enterica, C7913, 4 h; read-out: MBC>99.9
Acinetobacter baumannii [15] = test: Bactericidal activity against Acinetobacter baumannii incubated for 4 hrs followed by culture spread on agar plates and cultured overnight; type: functional; conditions: read-out: MBC>99.9
Pseudomonas aeruginosa [16] = test: Antimicrobial activity against Pseudomonas aeruginosa PAO1 after 24 hrs by NCCLS-protocol based assay; type: functional; conditions: PAO1, 24 h
Pseudomonas aeruginosa [17] = test: Bactericidal activity against Pseudomonas aeruginosa ATCC 27853 incubated for 4 hrs followed by culture spread on agar plates and cultured overnight; type: functional; conditions: ATCC 27853, 4 h, read-out: MBC>99.9
Escherichia coli [18] = test: Antimicrobial activity against Escherichia coli UB1005 after 24 hrs by NCCLS-protocol based assay; type: functional; conditions: UB1005, 24 h
Pseudomonas aeruginosa [19] = test: Bactericidal activity against Pseudomonas aeruginosa PAO1 incubated for 4 hrs followed by culture spread on agar plates and cultured overnight; type: functional; conditions: PAO1, 4 h, read-out: MBC>99.9
[20] = Antimicrobial activity against Salmonella pullorum C7913 after 24 hrs by NCCLS-protocol based assay; type: functional, Salmonella enterica subsp. enterica serovar Pullorum; conditions: Salmonella enterica, C7913, 24 h
Escherichia coli [21] = test: Bactericidal activity against Escherichia coli K99 incubated for 4 hrs followed by culture spread on agar plates and cultured overnight; type: functional; conditions: K99, 4 h, read-out: MBC>99.9
Klebsiella pneumoniae [22] = test: Bactericidal activity against Klebsiella pneumoniae incubated for 4 hrs followed by culture spread on agar plates and cultured overnight; type: functional; conditions: read-out: MBC>99.9
Pseudomonas aeruginosa [23] = test: Bactericidal activity against Pseudomonas aeruginosa 25349 clinical isolates incubated for 4 hrs followed by culture spread on agar plates and cultured overnight; type: functional; conditions: Pseudomonas aeruginosa, 25349, 4 h; read-out: MBC>99.9
Escherichia coli [24] = test: Antimicrobial activity against Escherichia coli K88 after 24 hrs by NCCLS-protocol based assay; type: functional; conditions: K88, 24 h
Salmonella typhimurium [25] = test: Antimicrobial activity against Salmonella typhimurium C7731 after 24 hrs by NCCLS-protocol based assay; type: functional, Salmonella enterica subsp. enterica serovar Typhimurium; conditions: Salmonella enterica, C7731, 24 h
Escherichia coli [26] = test: Antimicrobial activity against Escherichia coli K99 after 24 hrs by NCCLS-protocol based assay; type: functional; conditions: K99, 24 h
Pseudomonas aeruginosa [27] = test: Antimicrobial activity against Pseudomonas aeruginosa CICC 21630 clinical isolates after 24 hrs by NCCLS-protocol based assay; type: functional; conditions: CICC 21630, 24 h
Pseudomonas aeruginosa [28] = test: Antimicrobial activity against Pseudomonas aeruginosa ATCC 27853 after 24 hrs by NCCLS-protocol based assay; type: functional; conditions: ATCC 27853, 24 h
Salmonella typhimurium [29] = test: Bactericidal activity against Salmonella typhimurium ATCC 14028 incubated for 4 hrs followed by culture spread on agar plates and cultured overnight; type: functional, Salmonella enterica subsp. enterica serovar Typhimurium; conditions: Salmonella enterica, ATCC 14028, 4 h; read-out: MBC>99.9
Pseudomonas aeruginosa [30] = test: Bactericidal activity against Pseudomonas aeruginosa CICC 21630 clinical isolates incubated for 4 hrs followed by culture spread on agar plates and cultured overnight; type: functional; conditions: CICC 21630, 4 h, read-out: MBC>99.9
Pseudomonas aeruginosa [31] = test: Antimicrobial activity against Pseudomonas aeruginosa 26305 clinical isolates after 24 hrs by NCCLS-protocol based assay; type: functional; conditions: Pseudomonas aeruginosa, 26305, 24 h
Klebsiella pneumoniae [32] = test: Antimicrobial activity against Klebsiella pneumoniae after 24 hrs by NCCLS-protocol based assay; type: functional

Substance	MIC95 (Pseudomonas aeruginosa [1]) [µM]	MIC95 (Acinetobacter baumannii [2]) [µM]	MIC95 (Pseudomonas aeruginosa [3]) [µM]	MBC (Pseudomonas aeruginosa [4]) [µM]	MBC (Pseudomonas aeruginosa [5]) [µM]	MBC (Salmonella typhimurium [6]) [µM]	MIC95 (Escherichia coli [7]) [µM]	MBC (Escherichia coli [8]) [µM]	MIC95 (Escherichia coli [9]) [µM]	MIC95 (Salmonella typhimurium [10]) [µM]	MBC (Escherichia coli [11]) [µM]	MBC (Escherichia coli [12]) [µM]	MBC (Escherichia coli [13]) [µM]	MBC [14] [µM]	MBC (Acinetobacter baumannii [15]) [µM]	MIC95 (Pseudomonas aeruginosa [16]) [µM]	MBC (Pseudomonas aeruginosa [17]) [µM]	MIC95 (Escherichia coli [18]) [µM]	MBC (Pseudomonas aeruginosa [19]) [µM]	MIC95 [20] [µM]	further results
H-IKPIIKPIIKPIIKPIIKPI-NH2	> 64	> 64	> 64	> 64	> 64	> 64	> 64	> 64	> 64	> 64	> 64	> 64	> 64	> 64	> 64	> 64	> 64	> 64	> 64	> 64	MBC (Escherichia coli [21]): > 64 µM; MBC (Klebsiella pneumoniae [22]): > 64 µM; MBC (Pseudomonas aeruginosa [23]): > 64 µM; MIC95 (Escherichia coli [24]): > 64 µM; MIC95 (Salmonella typhimurium [25]): > 64 µM; MIC95 (Escherichia coli [26]): > 64 µM; MIC95 (Pseudomonas aeruginosa [27]): > 64 µM; MIC95 (Pseudomonas aeruginosa [28]): > 64 µM; MBC (Salmonella typhimurium [29]): > 64 µM; MBC (Pseudomonas aeruginosa [30]): > 64 µM; MIC95 (Pseudomonas aeruginosa [31]): > 64 µM; MIC95 (Klebsiella pneumoniae [32]): > 64 µM
H-IKPIIKPIIKPIIKPIIKPIIKPIIKPIIKPI-NH2	> 64	4	> 64	> 64	> 64	> 64	32	> 64	16	> 64	2	16	4	> 64	4	> 64	> 64	4	> 64	> 64	MBC (Escherichia coli [21]): 4 µM; MBC (Klebsiella pneumoniae [22]): > 64 µM; MBC (Pseudomonas aeruginosa [23]): > 64 µM; MIC95 (Escherichia coli [24]): 1 µM; MIC95 (Salmonella typhimurium [25]): > 64 µM; MIC95 (Escherichia coli [26]): 2 µM; MIC95 (Pseudomonas aeruginosa [27]): > 64 µM; MIC95 (Pseudomonas aeruginosa [28]): > 64 µM; MBC (Salmonella typhimurium [29]): > 64 µM; MBC (Pseudomonas aeruginosa [30]): > 64 µM; MIC95 (Pseudomonas aeruginosa [31]): > 64 µM; MIC95 (Klebsiella pneumoniae [32]): 64 µM
H-VRPVVRPVVRPVVRPVVRPVVRPV-NH2	> 64	4	> 64	> 64	> 64	32	64	> 64	64	16	8	> 64	32	16	4	> 64	> 64	32	> 64	8	MBC (Escherichia coli [21]): 16 µM; MBC (Klebsiella pneumoniae [22]): > 64 µM; MBC (Pseudomonas aeruginosa [23]): > 64 µM; MIC95 (Escherichia coli [24]): 8 µM; MIC95 (Salmonella typhimurium [25]): 32 µM; MIC95 (Escherichia coli [26]): 16 µM; MIC95 (Pseudomonas aeruginosa [27]): > 64 µM; MIC95 (Pseudomonas aeruginosa [28]): > 64 µM; MBC (Salmonella typhimurium [29]): 32 µM; MBC (Pseudomonas aeruginosa [30]): > 64 µM; MIC95 (Pseudomonas aeruginosa [31]): > 64 µM; MIC95 (Klebsiella pneumoniae [32]): > 64 µM
H-IRPIIRPIIRPIIRPIIRPIIRPIIRPIIRPI-NH2	> 64	2	> 64	> 64	> 64	> 64	2	2	2	8	2	2	2	4	4	4	8	2	4	4	MBC (Escherichia coli [21]): 2 µM; MBC (Klebsiella pneumoniae [22]): 8 µM; MBC (Pseudomonas aeruginosa [23]): > 64 µM; MIC95 (Escherichia coli [24]): 2 µM; MIC95 (Salmonella typhimurium [25]): 64 µM; MIC95 (Escherichia coli [26]): 1 µM; MIC95 (Pseudomonas aeruginosa [27]): > 64 µM; MIC95 (Pseudomonas aeruginosa [28]): 8 µM; MBC (Salmonella typhimurium [29]): 16 µM; MBC (Pseudomonas aeruginosa [30]): > 64 µM; MIC95 (Pseudomonas aeruginosa [31]): > 64 µM; MIC95 (Klebsiella pneumoniae [32]): 4 µM
